{"source": "patent US7550425B2", "about": "“Diuretic peptide conjugates” (Zealand Pharma A/S, priority 2000, dated 2009)", "key": {"[1]": {"tested_on": "nociceptin-induced smooth muscle relaxation in mouse vas deferens", "assay": "Mouse vas deferens assay: antagonism of nociceptin-induced relaxation (Schild pA2)", "procedure": "The vas deferens from male NMRI albino mice weighing 30-40 g were placed in a SCHULER organ bath Type 809, Hugo Sachs Elektronik, Germany, and perfused with a 37° C., modified Krebs solution (NaCl 6,9 g/L, KCl 0.35 g/L, KH2PO4 0.16 g/L, NaHCO3 2.1 g/L, Glucose H2O 2.0 g/L, CaCl2 2.52 mL/L). The solution was gassed with carbogen (95% O2 and 5% CO2) throughout the experiment. The tissue was electrically stimulated through two silver electrodes directly in the organ bath using a HSE Stimulator I Type 215. Stimulation of the tissue was performed by applying a supramaximal voltage (15 Volts) in trains of 10 square pulses every 60 s, each of 1 ms duration with a frequency of […]. Concentration-response curves were performed by adding test substances that relax mouse vas deferens smooth muscles cumulatively to the organ baths. The test substances used in the assay were nociceptin in an isotonic saline solution, Compound 1 (as the trifluoroacetate in an isotonic saline solution), Compound 2 (as the trifluoroacetate in an isotonic saline solution), and the hexapeptide Ac-RYYRWK-NH2 (SEQ ID NO: 1) (as the trifluoroacetate in an isotonic saline solution).\nThe effects of Ac-RYYRWK-NH2 (SEQ ID NO: 1) and Compound 1 on nociceptin-induced relaxation in the mouse vas deferens assay were also tested. […] Using the Schild equation ^[7], the pA2 values which indicates affinity of a compound as an antagonist were calculated."}, "[2]": {"tested_on": "opioid (non-selective opiate, δ, κ, μ), vasopressin (V1a, V1b, V2) and 40 other receptor, uptake and ion channel binding sites", "assay": "Receptor, uptake and ion channel binding panel", "details": "0.1, 10 and 1000 nM (opioid, vasopressin); 10 μM (other sites)", "procedure": "In addition, Compound 1 has been tested in 5 opioid (non-selective opiate, δ, κ, μ, &ORL1), 3 vasopressin (V1a, V1b and V2) receptor binding assays at 0.1, 10, and 1000 nM as well as in 40 different receptor, uptake, and ion channel binding sites (A1, A2, α1, α2, β1, NE uptake, AT1, BZD, B2 (h), CCKA (˜CCK1), D1, D2, ETA(h), GABA, NMDA, H1, M, NK1(h), Y, N, opiate, PCP, 5-HT, 5-HT1B, 5-HT2A, 5-HT uptake, σ, V1) at 10 μM."}, "[3]": {"assay": "In vitro stability in heparinised human plasma", "format": "in vitro ADME", "procedure": "In addition, the degradation of Compound 1 of the invention has been studied in heparinised human plama.\nThe stability of peptides is analysed in human plasma. The peptides are incubated at 37° C. in plasma and samples taken at approx. 8 regular intervals between t=0 and t=390 min for Compound 1 and nociceptin-NH2, and at 9 intervals between t=0 and t=32 min for Compound CE1 are analysed by HPLC. […] This is done by subsequent injections of the drug, plasma, and a co-injection with the drug and the plasma, followed by optimisation of the LC method parameters until a satisfactory separation is obtained. Three parallel experiments are performed for each plasma type. 100 μl of peptide is mixed with 900 μl plasma at t=0 and incubated at 37° C. (drug-plasma mixture conc. 0.1 mg/ml). Samples of 100 μl of the drug-plasma mixture are removed at appropriate intervals and the degradation stopped by precipitation of the sample with 10 μl MeCN:TFA 50:50 v/v. A control plasma sample without the drug treated in the same manner is also taken. The plasma samples are centrifuged for 15 min. at 12,000 rpm (Eppendorf centrifuge) at ambient temperature. The resulting supernatant solution is transferred to 300 μl HP autosamler vials and analyzed by HPLC. HPLC analysis are performed as follows:\nAc-RYYRWK-NH2 (SEQ ID NO: 1) and Compound 1\nThe samples are analysed in the following order: blank, the peptide at 0.1 mg/mL, the plasma without the peptide, the three parallel samples for t=0, the three parallel samples for t=5 min. the three parallel samples for t=60 min. etc. And finally the three parallel samples for t=0 are repeated to make sure that there have been no degradation or other failure during the analyses. The sample concentrations (peak height in mAU) are plotted vs. time and fitted to a function describing a mono exponential decay (Excel). The half-lives of the peptides in plasma are presented in Table 7 as mean (n=3)±standard deviation."}}, "note": "Where two headings read alike, the source gives them in different places."}
{"substance": "Ac-RYYRWKKKKKKK-NH2 [Compound 1, Ac-RYYRWKKKKKKK-NH2]", "values": [{"measurement": "pA2 value", "setting": "[1]; Schild equation, antagonism of nociceptin-induced relaxation, n = 4", "value": "9.5 (n = 4)"}, {"measurement": "fold more potent as an antagonist than Ac-RYYRWK-NH2", "setting": "[1]; nociceptin-induced smooth muscle relaxation, MVD assay", "value": "about 50 fold"}, {"measurement": "binding to other receptors than the ORL1 receptor", "setting": "[2]", "value": "none or only weak binding to other receptors than the ORL1 receptor"}, {"measurement": "half-life at 0.1 mg/ml", "setting": "[3]; 37° C., mean (n=3) +/− deviation, read-out: T1/2 in min (degradation in human heparinised plasma)", "value": 16.2, "unit": "h"}, {"measurement": "half-life at 0.1 mg/ml", "setting": "[3]; read-out: half life in plasma", "value": "> 16", "unit": "h"}]}
